# Results reported in patent US9340536B2, “Multicomponent crystals comprising dasatinib and selected co-crystal formers” (BASF SE, priority 2012, dated 2016).
# Assays:
# [1] = Aqueous solubility determination (suspension in pure water, HPLC); settings: 25 °C
# Description: Solubility Determinations:
# Solubility determinations were carried out in pure water at 25±2° C. Suspensions with about 10 mg co-crystal in 0.5 mL water were prepared an equilibrated for two hours before the solution phase was filtered off and tested by HPLC.
# HPLC was carried out on an Agilent 1100 HPLC chromatograph equipped with a UV-vis detection unit. […] The column type used was a Waters XTerra MS C18, 250×4.6 mm, 5 μm (FK-CC14). The method as referenced above is an isocratic method using an aqueous ammonium acetate/acetic acid and methanol with a ratio of 55/45. The applied flow rate was 1.0 mL per minute, the injection volume was 20 microliter and the detection wavelength was 321 nm.
# [2] = estimated by Roy et al., Cryst. Growth & Design 2012 (12), 2122-2126; cited from earlier work
"solubility at 2 h ([1]; pure water, thermodynamic from solid)",solubility [1],Compound,ratio of the equilibrium solubility of anhydrous Dasatinib free base to Dasatinib monohydrate free base [2]
0.36 µg/mL,,"Cc1nc(Nc2ncc(C(=O)Nc3c(C)cccc3Cl)s2)cc(N2CCN(CCO)CC2)n1 [Dasatinib free base monohydrate, N-(2-chloro-6-methylphenyl)-2-[[6-[4-(2-hydroxyethyl)-1-piperazinyl]-2-methyl-4-pyrimidinyl]amino]-5-thiazolecarboxamide]",
,~0.9 µg/mL,"Cc1nc(Nc2ncc(C(=O)Nc3c(C)cccc3Cl)s2)cc(N2CCN(CCO)CC2)n1 [Dasatinib free base anhydrous form, N-(2-chloro-6-methylphenyl)-2-[[6-[4-(2-hydroxyethyl)-1-piperazinyl]-2-methyl-4-pyrimidinyl]amino]-5-thiazolecarboxamide]",about 2.4
